How the values were obtained:
Format in all cases: cell-based
RL cells = assay: RT2 Glucocorticoid signaling PCR array, RL (Table 4e, printed RI) cell line; conditions: 4 days, Cpd44 1 uM, Pred 10-fold below 4-day IC50, vs DMSO, B2M-normalized
SMARCB1 protein levels = assay: SMARCB1 (INI1) western blot in lymphoma cells; conditions: single agent treatment
Source text: Glucocorticoid bound GR molecules move to the nucleus and can act as either transcriptional activator or repressor, depending on the cellular environment. […] Accessibility to GR binding sites can further be enhanced by ATP-dependent chromatin remodeling, and the SWI/SNF complex plays a key role in this activity. Not wishing to be bound by a particular theory or a specific mechanism of action, it is conceivable that aberrant chromatin repression, induced by EZH2 mediated hypertrimethylation of H3K27, can block some of the otherwise accessible GR binding sites, interfering with normal GR mediated gene induction or repression.

SU-DHL10 cells = assay: RT2 Glucocorticoid signaling PCR array, SU-DHL10 (SUDHL10) cell line (Table 4d); conditions: SUDHL10, 4 days, vs DMSO
Source text: Expression levels of (A). Sestrin; (B). TNF and (C) GILZ normalized to DMSO controls for each cell line with the indicated single agent or combination.

SMILES: C[C@]12C=CC(=O)C=C1CC[C@@H]1[C@@H]2[C@@H](O)C[C@@]2(C)[C@H]1CC[C@]2(O)C(=O)CO [Prednisolone, prednisolone]
- ΔΔCT (RL cells; ADARB1 mRNA): 0.413
- ΔΔCT (RL cells; AFF1 mRNA): −1.390
- ΔΔCT (RL cells; AK2 mRNA): 0.686
- ΔΔCT (RL cells; AMPD3 mRNA): −0.544
- ΔΔCT (RL cells; ANGPTL4 mRNA): 1.668
- ΔΔCT (RL cells; ANXA4 mRNA): 0.131
- ΔΔCT (RL cells; ARID68 mRNA): 0.833
- ΔΔCT (RL cells; ASPH mRNA): 0.771
- ΔΔCT (RL cells; BCL6 mRNA): 0.937
- ΔΔCT (RL cells; CEBPB mRNA): 2.638
- ΔΔCT (RL cells; CREB1 mRNA): 0.483
- ΔΔCT (RL cells; CREB3L4 mRNA): 0.129
- ΔΔCT (RL cells; DDIT4 mRNA): 1.431
- ΔΔCT (RL cells; DUSP1 mRNA): −0.153
- ΔΔCT (RL cells; EDN1 mRNA): 6.595
- ΔΔCT (RL cells; EHD3 mRNA): 0.055
- ΔΔCT (RL cells; FK8PS mRNA): −0.333
- ΔΔCT (RL cells; FOSL2 mRNA): 2.300
- ΔΔCT (RL cells; GDPD1 mRNA): 0.711
- ΔΔCT (RL cells; GLUL mRNA): 1.007
- ΔΔCT (RL cells; GOT1 mRNA): 1.467
- ΔΔCT (RL cells; H6PD mRNA): 0.935
- ΔΔCT (RL cells; HNRPLL mRNA): 0.789
- ΔΔCT (RL cells; IL1RN mRNA): −0.808
- ΔΔCT (RL cells; IL6R mRNA): 0.885
- ΔΔCT (RL cells; IL10 mRNA): −0.083
- ΔΔCT (RL cells; KLF13 mRNA): 0.346
- ΔΔCT (RL cells; LOX mRNA): −0.132
- ΔΔCT (RL cells; MT2A mRNA): 1.656
- ΔΔCT (RL cells; NFKBIA mRNA): 0.853
- ΔΔCT (RL cells; NR3C1 mRNA): 0.952
- ΔΔCT (RL cells; PDCD7 mRNA): 0.394
- ΔΔCT (RL cells; PDP1 mRNA): 0.742
- ΔΔCT (RL cells; PER1 mRNA): 2.230
- ΔΔCT (RL cells; PER2 mRNA): 0.250
- ΔΔCT (RL cells; PLEKHF1 mRNA): 1.075
- ΔΔCT (RL cells; POU2F2 mRNA): 0.797
- ΔΔCT (RL cells; RA5A3 mRNA): 1.543
- ΔΔCT (RL cells; RGS2 mRNA): 0.772
- ΔΔCT (RL cells; SGK1 mRNA): 0.848
- ΔΔCT (RL cells; SLC10A6 mRNA): −1.725
- ΔΔCT (RL cells; SNTA1 mRNA): 1.144
- ΔΔCT (RL cells; SPHK1 mRNA): 2.618
- ΔΔCT (RL cells; SPSB1 mRNA): 2.005
- ΔΔCT (RL cells; STAT5A mRNA): 0.789
- ΔΔCT (RL cells; STAT5B mRNA): 0.512
- ΔΔCT (RL cells; TBL1XR1 mRNA): 0.794
- ΔΔCT (RL cells; TNF mRNA): −0.598
- ΔΔCT (RL cells; TNFAIP3 mRNA): 1.561
- ΔΔCT (RL cells; TSC22D3 mRNA): −1.431
- ΔΔCT (RL cells; USP2 mRNA): −0.661
- ΔΔCT (RL cells; USPS4 mRNA): 0.491
- ΔΔCT (RL cells; VDR mRNA): 1.247
- ΔΔCT (RL cells; VLDLR mRNA): −1.862
- ΔΔCT (RL cells; ZFP36 mRNA): 0.925
- ΔΔCT (RL cells; ZNF281 mRNA): 0.371
- SMARCB1 protein levels (SMARCB1 protein levels): no effect
- ADARB1 ΔΔCT (SU-DHL10 cells): 2.234
- AK2 ΔΔCT (SU-DHL10 cells): −0.345
- ARIDS8 ΔΔCT (SU-DHL10 cells): 1.603
- ASPH ΔΔCT (SU-DHL10 cells): 0.169
- CEBPA ΔΔCT (SU-DHL10 cells): 0.784
- DDIT4 ΔΔCT (SU-DHL10 cells): −1.212
- H6PD ΔΔCT (SU-DHL10 cells): 0.844
- LOX ΔΔCT (SU-DHL10 cells): −0.505
- NR3C1 ΔΔCT (SU-DHL10 cells): 0.256
- PER2 ΔΔCT (SU-DHL10 cells): −0.204
- SPHK1 ΔΔCT (SU-DHL10 cells): −0.279
- STAT5B ΔΔCT (SU-DHL10 cells): 0.719
- TNF ΔΔCT (SU-DHL10 cells): 0.221
- VDR ΔΔCT (SU-DHL10 cells): −0.245
